Data from patent US20220089592A1, “IMIDAZO[1,2-A]PYRIDINYL DERIVATIVES AS IRAK4 INHIBITORS” (priority 2019, published 2022).
Structures can show the parent of a compound that is named as a salt.

target: T1, IRAK4 (Homo sapiens, UniProt Q9NWZ3); test: 2-hour 1 mM ATP IRAK4 Biochemical assay (as above, but with 100 pM IRAK4 and 1 mM ATP); conditions: IRAK4 MSD BIOCHEMICAL (1 mM ATP) IC50 (μM), 100 pM IRAK4, 2 hours
T1 sequence (Q9NWZ3 1-460): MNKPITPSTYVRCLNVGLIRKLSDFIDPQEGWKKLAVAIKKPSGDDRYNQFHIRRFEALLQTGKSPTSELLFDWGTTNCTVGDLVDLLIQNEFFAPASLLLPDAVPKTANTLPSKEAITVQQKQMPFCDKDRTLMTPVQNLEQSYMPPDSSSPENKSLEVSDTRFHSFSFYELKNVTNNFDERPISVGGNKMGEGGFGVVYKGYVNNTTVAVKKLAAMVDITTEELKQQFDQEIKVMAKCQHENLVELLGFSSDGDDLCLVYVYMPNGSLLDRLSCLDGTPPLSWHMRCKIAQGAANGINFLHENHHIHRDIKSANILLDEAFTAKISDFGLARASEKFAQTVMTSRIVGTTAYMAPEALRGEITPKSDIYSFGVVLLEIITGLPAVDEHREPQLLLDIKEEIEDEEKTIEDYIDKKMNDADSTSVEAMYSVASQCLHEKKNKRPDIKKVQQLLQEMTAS
Method: The 2-hour 10 μM ATP Biochemical Assay employs a MesoScale Detection (MSD) format.
The activity is quenched with 11 μl of 70 mM EDTA, pH 8.
To detect the phosphorylated biotinylated peptide substrate, 30 μl of the quenched reaction mixture is added to equivalent wells of a 384 well streptavidin coated MesoScale plate (Meso Scale Discovery #L21SA-1). After a 1 hour incubation of the plate for 1 hour at room temperature with gentle mixing, the plate wells are washed 3 times with 50 mM Tris, pH 7.5, 150 mM NaCl, 0.02% Tween-20.
A 25 μl volume of 1:500 anti-P-Threonine Rabbit polyclonal Antibody plus 1:500 Goat-anti-Rabbit Sulfo Tag Antibody (Meso Scale Discovery R32AB-1) in 50 mM Tris, pH 7.5, 150 mM NaCl, 0.02% Tween-20 plus 2% BSA is then added to each well. After a 1-hour incubation of the plate for 1 hour at room temperature with gentle mixing, the plate wells are washed, 3 times with 50 mM Tris, pH 7.5, 150 mM NaCl, 0.02% Tween-20. A 40 μl volume of 2×MSD Read Buffer (Meso Scale Discovery R92TC-1) is added to each well, and the plate is read immediately in an MSD Plate Reader (Meso Scale Discovery).
The 2-hour 1 mM ATP IRAK4 Biochemical assay was performed as described above, but with 100 pM IRAK4 and 1 mM ATP.

Structure (SMILES) | IC50
COc1ccccc1C(=O)Nc1cn2cc(C34COC(C)(C3)C4)nc2c(F)c1OC(C)C [Example 424, N-(8-fluoro-7-isopropoxy-2-(1-methyl-2-oxabicyclo[2.1.1]hexan-4-yl)imidazo[1,2-a]pyridin-6-yl)-2-methoxybenzamide 2,2,2-trifluoroacetate] | 0.017 µM
COc1nc2nc(C34CC(F)(C3)C4)cn2cc1NC(=O)c1cccc(C(F)F)n1 [Example 566, 6-(difluoromethyl)-N-(2-(3-fluorobicyclo[1.1.1]pentan-1-yl)-7-methoxyimidazo[1,2-a]pyrimidin-6-yl)picolinamide 2,2,2-trifluoroacetate] | 0.054 µM
COc1cc(NC(=O)c2csc(C3CC3)n2)cn2cc(C3CCOCC3)nc12 [Example 244, 2-cyclopropyl-N-(8-methoxy-2-(tetrahydro-2H-pyran-4-yl)imidazo[1,2-a]pyridin-6-yl)thiazole-4-carboxamide] | 0.028 µM
CCOc1cc2nc(C3C4COCC43)cn2cc1NC(=O)c1coc(C2CC2)n1 (centres unmarked) [Example 375, N-(2-(3-oxabicyclo[3.1.0]hexan-6-yl)-7-ethoxyimidazo[1,2-a]pyridin-6-yl)-2-cyclopropyloxazole-4-carboxamide] | 0.004 µM
CC(C)Oc1cc2nc(-c3ccnn3C)cn2cc1NC(=O)c1cccc(C(F)F)n1 [Example 525, 6-(difluoromethyl)-N-(7-isopropoxy-2-(1-methyl-1H-pyrazol-5-yl)imidazo[1,2-a]pyridin-6-yl)picolinamide] | 0.002 µM
COc1ccccc1C(=O)Nc1cn2cc(C34CCC(C)(C3)OC4)nc2c(OC)n1 (centres unmarked) [Example 465, 2-methoxy-N-(8-methoxy-2-(1-methyl-2-oxabicyclo[2.2.1]heptan-4-yl)imidazo[1,2-a]pyrazin-6-yl)benzamide 2,2,2-trifluoroacetate] | 0.037 µM
CCOc1nc(NC(=O)c2cccc(C(F)F)n2)cn2cc(C34COC(C)(C3)C4)nc12 [Example 201, 6-(difluoromethyl)-N-(8-ethoxy-2-(1-methyl-2-oxabicyclo[2.1.1]hexan-4-yl)imidazo[1,2-a]pyrazin-6-yl)picolinamide] | 0.004 µM
COc1ncccc1C(=O)Nc1cn2cc(C34COC(C)(C3)C4)nc2c(F)c1OC1CCCC1 [Example 329] | 0.017 µM
COc1ccccc1C(=O)Nc1cn2cc(C34COC(C)(C3)C4)nc2nc1OC1CC1 [Example 350, N-(7-cyclopropoxy-2-(1-methyl-2-oxabicyclo[2.1.1]hexan-4-yl)imidazo[1,2-a]pyrimidin-6-yl)-2-methoxybenzamide] | 0.006 µM
CCOc1cc2nc(C3C4COCC43)cn2cc1NC(=O)c1ccn(CC(F)(F)F)n1 (centres unmarked) [Example 235, N-(2-(3-oxabicyclo[3.1.0]hexan-6-yl)-7-ethoxyimidazo[1,2-a]pyridin-6-yl)-1-(2,2,2-trifluoroethyl)-1H-pyrazole-3-carboxamide] | 0.023 µM
Cc1cccc(C(=O)Nc2cn3cc(C4CCOCC4)nc3cc2C(F)F)n1 [Example 315, N-(7-(difluoromethyl)-2-(tetrahydro-2H-pyran-4-yl)imidazo[1,2-a]pyridin-6-yl)-6-methylpicolinamide] | 0.021 µM
CCOc1cc(NC(=O)c2cccc(C(F)(F)F)n2)cn2cc(C3CCOCC3)nc12 [Example 415, N-(8-ethoxy-2-(tetrahydro-2H-pyran-4-yl)imidazo[1,2-a]pyridin-6-yl)-6-(trifluoromethyl)picolinamide hydrochloride] | 0.033 µM
CC(C)Oc1c(NC(=O)c2ccn(C)n2)cn2cc(C34CCC(C)(C3)OC4)nc2c1F (centres unmarked) [Example 325, N-(8-fluoro-7-isopropoxy-2-(1-methyl-2-oxabicyclo[2.2.1]heptan-4-yl)imidazo[1,2-a]pyridin-6-yl)-1-methyl-1H-pyrazole-3-carboxamide] | 0.002 µM
CCc1cccc(C(=O)Nc2cn3cc(C4CCOCC4)nc3cn2)n1 [Example 438, 6-ethyl-N-(2-(tetrahydro-2H-pyran-4-yl)imidazo[1,2-a]pyrazin-6-yl)picolinamide] | 0.007 µM
COc1nc(NC(=O)c2coc(C3CC3)n2)cn2cc(C34CCC(C)(C3)OC4)nc12 (centres unmarked) [Example 472, 2-cyclopropyl-N-(8-methoxy-2-(1-methyl-2-oxabicyclo[2.2.1]heptan-4-yl)imidazo[1,2-a]pyrazin-6-yl)oxazole-4-carboxamide 2,2,2-trifluoroacetate] | 0.015 µM
COCc1cc2nc(C3CCOCC3)cn2cc1NC(=O)c1cccc(C(F)F)n1 [Example 314, 6-(difluoromethyl)-N-(7-(methoxymethyl)-2-(tetrahydro-2H-pyran-4-yl)imidazo[1,2-a]pyridin-6-yl)picolinamide] | 0.013 µM
CCOc1cc2nc(CCCOC)cn2cc1NC(=O)c1cccc(C(F)F)n1 [Example 12, 6-(difluoromethyl)-N-(7-ethoxy-2-(3-methoxypropyl)imidazo[1,2-a]pyridin-6-yl)picolinamide] | 0.001 µM
COc1nc(NC(=O)c2coc(C(F)F)n2)cn2cc(C34COC(C)(C3)C4)nc12 [Example 439, 2-(difluoromethyl)-N-(8-methoxy-2-(1-methyl-2-oxabicyclo[2.1.1]hexan-4-yl)imidazo[1,2-a]pyrazin-6-yl)oxazole-4-carboxamide] | 0.063 µM
CC(C)Oc1cc2nc(Cl)cn2cc1NC(=O)c1cccc(C(F)F)n1 [Example 294, N-(2-chloro-7-isopropoxyimidazo[1,2-a]pyridin-6-yl)-6-(difluoromethyl)picolinamide] | 0.002 µM

Further lines, results first:

IC50 | Structure (SMILES)
0.157 µM | COc1c(F)cccc1C(=O)Nc1cn2cc(Cl)nc2cc1OC(C)C [Example 402, N-(2-chloro-7-isopropoxyimidazo[1,2-a]pyridin-6-yl)-3-fluoro-2-methoxybenzamide 2,2,2-trifluoroacetate]
0.005 µM | COc1nc(NC(=O)c2cccc(C(F)F)n2)cn2cc(C3CCCOC3)nc12 (centres unmarked) [Example 549, 6-(difluoromethyl)-N-(8-methoxy-2-(tetrahydro-2H-pyran-3-yl)imidazo[1,2-a]pyrazin-6-yl)picolinamide]
0.007 µM | COc1nc(NC(=O)c2cccc(C(F)(F)F)n2)cn2cc(C3CCCOC3)nc12 (single isomer, unassigned) [Example 299, N-(8-methoxy-2-(tetrahydro-2H-pyran-3-yl)imidazo[1,2-a]pyrazin-6-yl)-6-(trifluoromethyl)picolinamide]
0.008 µM | O=C(Nc1cn2cc(C3CCCOC3)nc2c(OC(F)F)n1)c1cccc(C(F)F)n1 (single isomer, unassigned) [Example 302, N-(8-(difluoromethoxy)-2-(tetrahydro-2H-pyran-3-yl)imidazo[1,2-a]pyrazin-6-yl)-6-(difluoromethyl)picolinamide]
0.006 µM | CCCOc1nc(NC(=O)c2cccc(C(F)F)n2)cn2cc(C3CCOCC3)nc12 [Example 476, 6-(difluoromethyl)-N-(8-propoxy-2-(tetrahydro-2H-pyran-4-yl)imidazo[1,2-a]pyrazin-6-yl)picolinamide 2,2,2-trifluoroacetate]
0.104 µM | CCn1ccc(C(=O)Nc2cn3cc(C4CCOCC4)nc3c(OC)n2)n1 [Example 463, 1-ethyl-N-(8-methoxy-2-(tetrahydro-2H-pyran-4-yl)imidazo[1,2-a]pyrazin-6-yl)-1H-pyrazole-3-carboxamide 2,2,2-trifluoroacetate]
0.003 µM | COc1c(NC(=O)c2cccc(C(F)F)n2)cn2cc(C3CCOCC3)nc2c1C [Example 427, 6-(difluoromethyl)-N-(7-methoxy-8-methyl-2-(tetrahydro-2H-pyran-4-yl)imidazo[1,2-a]pyridin-6-yl)picolinamide]
0.047 µM | CCOc1nc(C(=O)Nc2cn3cc(C45COC(C)(C4)C5)nc3c(OC)n2)co1 [Example 440, 2-ethoxy-N-(8-methoxy-2-(1-methyl-2-oxabicyclo[2.1.1]hexan-4-yl)imidazo[1,2-a]pyrazin-6-yl)oxazole-4-carboxamide]
0.051 µM | COc1nc(NC(=O)c2cccc(C(F)F)n2)cn2cc(C34CCC(CC3)OC4)nc12 [Example 561, N-(2-(2-oxabicyclo[2.2.2]octan-4-yl)-8-methoxyimidazo[1,2-a]pyrazin-6-yl)-6-(difluoromethyl)picolinamide]
0.031 µM | COc1c(Cl)c(NC(=O)c2cccc(C(F)F)n2)cn2cc(C3CCOCC3)nc12 [Example 331, N-(7-chloro-8-methoxy-2-(tetrahydro-2H-pyran-4-yl)imidazo[1,2-a]pyridin-6-yl)-6-(difluoromethyl)picolinamide]
